Patent US11339171B2, “MDM2 inhibitors” (Gan & Lee Pharmaceuticals, priority 2017, dated 2022)
“And” between values parts separate entries of the source, which are not always exact repeats. Equal values may be shown once. Read-outs that look alike come from different tables or passages of the source.

Columns and labels:
[1] = tested on: human osteosarcoma cell line SJSA-1; test: Inhibition of proliferation of human osteosarcoma cell line SJSA-1 (DAPI staining, In Cell Analyzer); conditions: Homo sapiens, SJSA-1, 72 h, read-out: IC50 (nM), inhibitory activity on proliferation of human osteosarcoma cell line SJSA-1, SJSA-1, incubated 72 h
[2] = Pharmacokinetics in ICR mice after intravenous and intragastric administration; type: in vivo; conditions: for F*: PO 5 mg/kg vs IV 2 mg/kg, mean; for Vd: read-out: Vz; for MRT last: read-out: MRT(0-t); for MRT inf: read-out: MRT(0-∞)
In short: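 Plasma concentrations by LC-MS/MS (range 1 to 2000 ng/ml) following single intravenous (2 mg/kg) or oral gavage (5 mg/kg) dosing of fasted male ICR mice, three per group. Vehicle 5% DMSO + 40% PEG400 + 55% (10% HP-β-CD in saline); standard PK parameters including bioavailability calculated.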

MDM2 = target: T1, MDM2 (Homo sapiens, UniProt Q00987); test: Inhibition test of MDM2-P53 (GST-MDM2, Biotin-P53, Anti-GST-Tb, SA-XL665); type: binding
T1 construct: made in house
T1 sequence (Q00987 whole entry): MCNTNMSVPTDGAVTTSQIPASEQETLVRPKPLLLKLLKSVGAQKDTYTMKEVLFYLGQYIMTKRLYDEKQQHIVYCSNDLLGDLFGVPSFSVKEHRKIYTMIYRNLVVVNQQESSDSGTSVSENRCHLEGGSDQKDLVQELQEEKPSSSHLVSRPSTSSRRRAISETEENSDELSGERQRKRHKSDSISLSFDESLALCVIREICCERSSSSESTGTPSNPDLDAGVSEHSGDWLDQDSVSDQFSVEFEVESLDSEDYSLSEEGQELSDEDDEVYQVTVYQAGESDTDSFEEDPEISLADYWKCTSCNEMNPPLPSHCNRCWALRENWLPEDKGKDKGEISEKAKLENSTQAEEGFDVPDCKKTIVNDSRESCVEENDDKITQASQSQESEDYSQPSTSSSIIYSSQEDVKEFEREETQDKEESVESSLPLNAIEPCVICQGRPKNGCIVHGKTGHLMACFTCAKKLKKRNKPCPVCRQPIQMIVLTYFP
In short: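 Binding was measured by TR-FRET with GST-MDM2 at 4 nM final in PBS with 0.1% BSA, 5 mM DTT and 1 mM AEBSF. Compounds were tested as twelve-point 5-fold dilutions and incubated with the detection mix for 90 min at 25 °C with shaking before plate-reader reading and curve fitting.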

[3] = ICR mice, IV 2 mg/kg, individual animals 301-303, 2 mg/kg
[4] = ICR mice, PO 5 mg/kg, individual animals 401-403, 5 mg/kg
[5] = male, ICR, mouse, plasma, iv, 2 mg/kg, ICR mice, IV 2 mg/kg, individual animals 301-303, read-out: Cmax
[6] = male, ICR, mouse, plasma, iv, 2 mg/kg, ICR mice, IV 2 mg/kg, individual animals 301-303, read-out: Tmax
[7] = male, ICR, mouse, plasma, iv, 2 mg/kg, ICR mice, IV 2 mg/kg, individual animals 301-303
[8] = male, ICR, mouse, plasma, iv, 2 mg/kg, ICR mice, IV 2 mg/kg, mean of 3 animals
[9] = male, ICR, mouse, plasma, iv, 2 mg/kg, ICR mice, IV 2 mg/kg, mean of 3 animals, read-out: AUC(0-t)
[10] = male, ICR, mouse, plasma, iv, 2 mg/kg, ICR mice, IV 2 mg/kg, mean of 3 animals, read-out: Cmax
[11] = male, ICR, mouse, plasma, iv, 2 mg/kg, ICR mice, IV 2 mg/kg, mean of 3 animals, read-out: Tmax
[12] = male, ICR, mouse, plasma, iv, 2 mg/kg, ICR mice, IV 2 mg/kg, mean of 3 animals, read-out: t1/2 (converted)
[13] = male, ICR, mouse, plasma, po, 5 mg/kg, ICR mice, PO 5 mg/kg, individual animals 401-403
[14] = male, ICR, mouse, plasma, po, 5 mg/kg, ICR mice, PO 5 mg/kg, individual animals 401-403, read-out: AUC(0-t)
[15] = male, ICR, mouse, plasma, po, 5 mg/kg, ICR mice, PO 5 mg/kg, individual animals 401-403, read-out: Cmax
[16] = male, ICR, mouse, plasma, po, 5 mg/kg, ICR mice, PO 5 mg/kg, individual animals 401-403, read-out: Tmax
[17] = male, ICR, mouse, plasma, po, 5 mg/kg, ICR mice, PO 5 mg/kg, individual animals 401-403, read-out: t1/2 (converted)
[18] = male, ICR, mouse, plasma, po, 5 mg/kg, ICR mice, PO 5 mg/kg, mean of 3 animals
[19] = male, ICR, mouse, plasma, po, 5 mg/kg, ICR mice, PO 5 mg/kg, mean of 3 animals, read-out: AUC(0-t)
[20] = male, ICR, mouse, plasma, po, 5 mg/kg, ICR mice, PO 5 mg/kg, mean of 3 animals, read-out: Cmax
[21] = male, ICR, mouse, plasma, po, 5 mg/kg, ICR mice, PO 5 mg/kg, mean of 3 animals, read-out: Tmax
[22] = male, ICR, mouse, plasma, po, 5 mg/kg, ICR mice, PO 5 mg/kg, mean of 3 animals, read-out: t1/2 (converted)
[23] = male, ICR, mouse, plasma, po, 5 mg/kg, oral intragastric administration 5 mg/kg, read-out: AUC0-t

COc1nc(OCCF)ncc1-c1nc2c(n1C(C)C)[C@@]1(C(=O)Nc3cc(Cl)ccc31)N(c1cc(Cl)ccc1C)C2=O [Example S-140, (S)-6-chloro-5′-(5-chloro-2-methylphenyl)-2′-(2-(2-fluoroethoxy)-4-methoxypyrimidin-5-yl)-3′-isopropyl-3′H-spiro[dihydroindole-3,4′-pyrrolo[3,4-d]imidazole]-2,6′(5′H)-dione]
IC50 [1]: 81.5 nM
AUC(0-t) [2, 3]: 9144.58 ng·h/mL and 19456.40 ng·h/mL and 11628.12 ng·h/mL
CL [2, 3]: 3.37 mL/min/kg and 1.67 mL/min/kg and 2.26 mL/min/kg
Cmax [2, 3]: 6627.89 ng/mL and 5215.16 ng/mL
MRT(0-t) [2, 3]: 1.58 h and 3.73 h and 1.94 h
Vz [2, 3]: 0.61 L/kg and 0.52 L/kg
t1/2 [2, 3]: 1.70 h and 4.19 h and 2.67 h
F* ([2]; ICR mice): 72.11%
AUC(0-t) [2, 4]: 26053.96 ng·h/mL and 23914.34 ng·h/mL
AUC(0-∞) [2, 4]: 26994.24 ng·h/mL and 26699.24 ng·h/mL
Cmax [2, 4]: 5947.01 ng/mL and 4972.85 ng/mL
MRT(0-t) [2, 4]: 2.67 h
MRT(0-∞) [2, 4]: 2.93 h and 3.85 h
Tmax [2, 4]: 1.00 h
t1/2 [2, 4]: 1.54 h and 2.38 h
Cmax [2, 5]: 4540 ng/mL
Tmax [2, 6]: 0.08 h
Vd [2, 7]: 0.5 L/kg
clearance [2, 8]: 2.43 mL/min/kg
AUC(0-t) [2, 9]: 13400 ng·h/mL
Cmax [2, 10]: 5460 ng/mL
MRT last [2, 8]: 2.42 h
Tmax [2, 11]: 0.083 h
Vd [2, 8]: 0.54 L/kg
half-life [2, 12]: 2.86 h
AUC(0-t) ([2]; male, ICR, mouse, plasma, iv, 2 mg/kg, ICR mice, IV 2 mg/kg, mean of 3 animals, second AUC column (c5) of Table 26, read-out: AUC(0-t)): 14900 ng·h/mL
MRT last ([2]; male, ICR, mouse, plasma, iv, 2 mg/kg, ICR mice, IV 2 mg/kg, mean of 3 animals, second MRT column (c7) of Table 26): 3.36 h
AUC(0-inf) [2, 13]: 24700 ng·h/mL
AUC(0-t) [2, 14]: 22600 ng·h/mL
Cmax [2, 15]: 4250 ng/mL
MRT last [2, 13]: 2.97 h
MRT inf [2, 13]: 3.69 h
Tmax [2, 16]: 2 h
half-life [2, 17]: 2.19 h
AUC(0-inf) [2, 18]: 26100 ng·h/mL
AUC(0-t) [2, 19]: 24200 ng·h/mL
Cmax [2, 20]: 5060 ng/mL
MRT last [2, 18]: 2.87 h
MRT inf [2, 18]: 3.49 h
Tmax [2, 21]: 1.67 h
half-life [2, 22]: 2.04 h
AUC(0-t) [2, 23]: 24200 ng·h/mL
half-life ([2]; male, ICR, mouse, plasma, po, 5 mg/kg, oral intragastric administration 5 mg/kg, read-out: half-life (converted)): 2.04 h
IC50 (MDM2): 0.00106 µM

COc1nc(C2CC2)ncc1-c1nc2c(n1C(C)C)[C@@]1(C(=O)Nc3cc(Cl)ccc31)N(c1cc(Cl)cnc1C)C2=O [Example S-159, (S)-6-chloro-5′-(5-chloro-2-methylpyridin-3-yl)-2′-(2-cyclopropyl-4-methoxypyrimidin-5-yl)-3′-isopropyl-3′H-spiro[dihydroindole-3,4′-pyrrolo[3,4-d]imidazole]-2,6′(5′H)-dione]
IC50 [1]: 34.2 nM
AUC(0-t) [2, 3]: 4456.51 ng·h/mL and 4501.92 ng·h/mL
Cmax [2, 3]: 2591.90 ng/mL and 2457.53 ng/mL
MRT(0-t) [2, 3]: 1.45 h and 1.52 h
MRT(0-∞) [2, 3]: 2.00 h and 2.19 h
Vz [2, 3]: 1.05 L/kg
t1/2 [2, 3]: 1.75 h
F* ([2]; ICR mice): 52.53%
AUC(0-t) [2, 4]: 5902.77 ng·h/mL and 6839.45 ng·h/mL
AUC(0-∞) [2, 4]: 6003.28 ng·h/mL and 7052.50 ng·h/mL
Cmax [2, 4]: 1853.01 ng/mL and 1794.96 ng/mL
MRT(0-t) [2, 4]: 2.27 h and 2.45 h
MRT(0-∞) [2, 4]: 2.40 h and 2.68 h
t1/2 [2, 4]: 1.28 h and 1.47 h
AUC(0-inf) [2, 7]: 3720 ng·h/mL
clearance [2, 7]: 17.9 mL/min/kg
AUC(0-t) ([2]; male, ICR, mouse, plasma, iv, 2 mg/kg, ICR mice, IV 2 mg/kg, individual animals 301-303, read-out: AUC(0-t)): 3600 ng·h/mL
Cmax [2, 5]: 2540 ng/mL
MRT last [2, 7]: 1.23 h
MRT inf [2, 7]: 1.45 h
Tmax [2, 6]: 0.08 h
Vd [2, 7]: 0.95 L/kg
half-life ([2]; male, ICR, mouse, plasma, iv, 2 mg/kg, ICR mice, IV 2 mg/kg, individual animals 301-303, read-out: t1/2 (converted)): 1.22 h
AUC(0-inf) [2, 8]: 4500 ng·h/mL
clearance [2, 8]: 15.1 mL/min/kg
AUC(0-t) [2, 9]: 4180 ng·h/mL
Cmax [2, 10]: 2530 ng/mL
MRT last [2, 8]: 1.4 h
MRT inf [2, 8]: 1.88 h
Tmax [2, 11]: 0.083 h
Vd [2, 8]: 1.02 L/kg
half-life [2, 12]: 1.61 h
AUC(0-inf) [2, 13]: 3770 ng·h/mL
AUC(0-t) [2, 14]: 3740 ng·h/mL
Cmax [2, 15]: 1440 ng/mL
MRT last [2, 13]: 1.9 h
MRT inf [2, 13]: 1.95 h
Tmax [2, 16]: 1 h
half-life [2, 17]: 1.03 h
AUC(0-inf) [2, 18]: 5610 ng·h/mL
AUC(0-t) [2, 19]: 5500 ng·h/mL
Cmax [2, 20]: 1700 ng/mL
MRT last [2, 18]: 2.21 h
MRT inf [2, 18]: 2.34 h
Tmax [2, 21]: 1 h
half-life [2, 22]: 1.26 h
AUC(0-t) [2, 23]: 5500 ng·h/mL
IC50 (MDM2): 0.0028 µM
